The source of these data is PubChem BioAssay (NCI).

Common to all, as to test: NCI-60 cell line screen, 48 h
The test system of assay [1] is RPMI-8226 leukemia.
Assay [2] deals with COLO 205 colon.
In assay [3] the test system is OVCAR-5 ovarian.
In assay [4] the test system is CAKI-1 renal.
The test system of assay [5] is HL-60(TB) leukemia.
The subject of assay [6] is SK-MEL-5 melanoma.
The subject of assay [7] is HOP-62 NSCLC.
Assay [8] concerns HOP-92 NSCLC.
Assay [9] concerns NCI-H226 lung.
Assay [10] has as its system HCC-2998 colon.

“And” between values parts separate entries of the source, which are not always exact repeats. Equal entries are not always repeated.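 Assay format: 96-well plates, 48-hour exposure. GI50: concentration for 50% inhibition of growth. TGI: concentration producing complete growth inhibition.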 Some results are limits rather than exact numbers.

Take `CCN(CC)CCNc1n[n+]([O-])c2cc([N+](=O)[O-])ccc2[n+]1[O-]`: the GI50 was 270 nM and 285 nM and 122 nM in assay [1]; 140 nM and 69.1 nM and 17.3 nM in [5]; 163 nM and 297 nM and 449 nM in [8]; 206 nM and 287 nM and 120 nM in assay [10]. Further, the TGI in [1] was 1.77 µM and 1.72 µM and 1.02 µM; in assay [2] it was 2500 nM and 1740 nM and 2120 nM; in [3] it was 4.45 µM and 3.44 µM and 4.33 µM; in assay [4], 1.79 µM and 2.7 µM and 1.97 µM; in assay [5], 0.381 µM and 0.278 µM and 0.0882 µM; in assay [6], 2010 nM and 1560 nM and 1700 nM. The TGI in [7] was 2.2 µM and 1.2 µM and 1.54 µM; in [8], 1.93 µM and 2.53 µM and 2.28 µM; in assay [9] it was 8.82 µM and 7.74 µM and 7.8 µM; in assay [10], 1.53 µM and 2.01 µM and 0.57 µM.
Regarding `C/C(=N\NC(=S)N1CCC1)c1ccccn1`, the GI50 in [1] is 4.99 nM; in assay [2] it was 4.86 nM; in assay [3], 6.89 nM; in assay [5] it was 4.5 nM; in [6], 9.94 nM; in [7] it was 22.3 nM. Besides, the GI50 is 35.1 nM in [8], 11.7 nM in assay [9] and 11.3 nM in assay [10]. The TGI was > 63.5 µM in assay [1]; > 100000 nM in [2]; 49.9 µM in assay [3]; 75.3 µM in assay [4]; 3.57 µM in assay [5]; 2010 nM in [6]. Besides, the TGI in assay [7] was > 33.9 µM; in [8], 47.9 µM; in assay [9], 3.48 µM; in [10], 26.8 µM.
As to `N#CN1CC[C@H](C(=O)Nc2ncc(-c3ccccc3)s2)C1`, the GI50 in assay [1] was 270 nM; in assay [2], 195 nM; in assay [3], 1390 nM; in assay [4] it was 1650 nM; in assay [5] it was 269 nM; in assay [6], 829 nM. Also, the GI50 in [7] was 1370 nM; in assay [8], 662 nM; in [9] it was 693 nM; in [10] it was 1090 nM. The TGI was 0.854 µM in assay [1]; 449 nM in assay [2]; > 100 µM in assay [3]; 4.26 µM in [4]; 0.652 µM in [5]; 3580 nM in [6]. Also, the TGI in [7] turned out to be 4.21 µM; in assay [8] it was 4.25 µM; in assay [9] it was 4.19 µM; in assay [10] it was 2.58 µM.
Consider `Cc1ccc2ccc3c4ccccc4ccc3c2c1`, for which the GI50 in [1] was 21000 nM; in assay [2], 18000 nM; in [3], 28800 nM; in [4], 20900 nM; in [5], 23800 nM; in assay [6], 27600 nM. In addition, the GI50 in assay [7] was 38000 nM; in [8], 12700 nM; in assay [9], 30300 nM; in [10], 20800 nM. Besides, the TGI worked out at 59.2 µM in assay [1]; 32600 nM in [2]; 95.6 µM in assay [3]; 63.7 µM in [4]; 60.5 µM in assay [5]; 92900 nM in assay [6]. In addition, the TGI in assay [7] was > 100 µM; in [8], 43.9 µM; in assay [9] it was > 100 µM; in assay [10], 43.2 µM.
`C[C@]12CCc3nc(Nc4ccc(O)cc4)sc3C1=CC[C@@H]1[C@@H]2CC[C@]2(C)/C(=N/NC(N)=S)CC[C@@H]12`: the GI50 is 1490 nM in assay [1]; 1560 nM in assay [2]; 1980 nM in assay [3]; 1590 nM in assay [4]; 1880 nM in [5]; 1660 nM in assay [6]. In addition, the GI50 in assay [7] is 1700 nM; in assay [8], 1710 nM; in assay [9], 1710 nM; in [10], 1890 nM. Also, the TGI was determined as 5.8 µM in assay [1]; 3390 nM in [2]; 4.8 µM in [3]; 3.4 µM in assay [4]; 5.07 µM in assay [5]; 3140 nM in [6]. Besides, the TGI in [7] worked out at 4.21 µM; in assay [8], 4.2 µM; in [9], 4.05 µM; in [10], 4.3 µM.
Turning to `O=C(Nc1ccc(-n2cc(-c3ccncc3)c(-c3ccc(Cl)c(O)c3)n2)cc1)c1cc(C(F)(F)F)cc(C(F)(F)F)c1`, the GI50 in assay [1] is 3860 nM; in [2], 3170 nM; in assay [3], 21400 nM; in [4] it was 7480 nM; in assay [5], > 100000 nM; in assay [6] it was 1550 nM. Further, the GI50 is 2110 nM in assay [7], 3890 nM in assay [8], 3630 nM in assay [9] and > 100000 nM in [10]. In addition, the TGI in assay [1] is > 100 µM; in [2] it was 14000 nM; in assay [3], > 100 µM; in assay [4], 42.9 µM; in assay [5], > 100 µM; in assay [6] it was 3630 nM. For the same compound, the TGI in assay [7] was 5.58 µM; in assay [8], 26.2 µM; in assay [9] it was 18.8 µM; in [10], > 100 µM.
Take `COc1cc([C@@H]2c3cc4c(cc3[C@H](SC(=N)N)[C@H]3COC(=O)[C@H]23)OCO4)cc(OC)c1OC`: the GI50 in [1] was 409 nM; in assay [2] it was 198 nM; in assay [3] it was 638 nM; in [4], 249 nM; in assay [5], 250 nM; in assay [6], 201 nM. In addition, the GI50 in assay [7] is 419 nM; in [8] it was 37100 nM; in assay [9], 573 nM; in [10], 338 nM. Also, the TGI was 32 µM in [1]; 422 nM in assay [2]; > 100 µM in assay [3]; 17.3 µM in assay [4]; > 100 µM in [5]; 649 nM in assay [6]. Moreover, the TGI in assay [7], in assay [8], in assay [9] and in assay [10] was > 100 µM each time.
In the case of `O=C1C=CC2(O)OCC3C=C4O[C@@H]5OC6(CCCCC6)O[C@@H]5C4[C@@H]2[C@@H]13` (stereo partly drawn), the TGI was 58.9 µM in assay [1]; 30900 nM in [2]; > 100 µM in assay [3]; 48.9 µM in assay [4]; 42.1 µM in assay [5]; > 100000 nM in [6]. For the same compound, the TGI in [7] was > 100 µM; in assay [8] it was 33.4 µM; in [9] it was > 100 µM; in [10], > 100 µM.
